This is an account of results in patent US10479764B2, “2-methylene-(22E)-25-hexanoyl-24-oxo-26,27-cyclo-22-dehydro-19-nor-vitamin D analogs” (WISCONSIN ALUMNI RESEARCH FOUNDATION, priority 2011, dated 2019).

Like-named read-outs stand apart in the source and are kept apart here.

For test [1], the system named is 24-hydroxylase (24Ohase) gene promoter in ROS 17/2.8 (bone) cells. In words: In vitro transcription assay (24-hydroxylase promoter luciferase reporter). It counts as cell-based. To be noted: ROS 17/2.8 cells, FIG. 3, read-out: EC50, transcriptional activity in bone cells (24-hydroxylase gene). As for the experimental part: In Vitro Transcription Assay
Transcription activity was measured in ROS 17/2.8 (bone) cells that were stably transfected with a 24-hydroxylase (24Ohase) gene promoter upstream of a luciferase reporter gene (Arbour et al., 1998). Cells were given a range of doses. Sixteen hours after dosing the cells were harvested and luciferase activities were measured using a luminometer.
RLU=relative luciferase units.
A general note: In a reporter assay the amount or activity of a reporter protein is the signal.

Test [2] can be described thus: Intestinal calcium transport (everted gut sac) in vitamin D-deficient rats. It is filed as in vivo, rat. How it is done:
(§1) Intestinal Calcium Transport and Bone Calcium Mobilization
(§2) Male, weanling Sprague-Dawley rats were placed on Diet 11 (0.47% Ca) diet+AEK oil for one week followed by Diet 11 (0.02% Ca)+AEK oil for 3 weeks. The rats were then switched to a diet containing 0.47% Ca for one week followed by two weeks on a diet containing 0.02% Ca. Dose administration began during the last week on 0.02% calcium diet. Four consecutive ip doses were given approximately 24 hours apart. Twenty-four hours after the last dose, blood was collected from the severed neck and the concentration of serum calcium determined as a measure of bone calcium mobilization. The first 10 cm of the intestine was also collected for intestinal calcium transport analysis using the everted gut sac method.

A further test relates to HL-60 cells. In words: HL-60 differentiation (nitro blue tetrazolium reduction). It counts as cell-based, human. To be noted: differentiation of HL-60 cells into monocytes, FIG. 2, read-out: EC50, HL-60 cell differentiation. As for the experimental part: The study drugs were dissolved in ethanol and the concentrations determined using UV spectrophotometry. Serial dilutions were prepared so that a range of drug concentrations could be tested without changing the final concentration of ethanol (≤0.2%) present in the cell cultures.
Human promyelocytic leukemia (HL60) cells were grown in RPMI-1640 medium containing 10% fetal bovine serum. The cells were incubated at 37° C. in the presence of 5% CO2.
HL60 cells were plated at 1.2×10^5 cells/ml. Eighteen hours after plating, cells in duplicate were treated with drug. Four days later, the cells were harvested and a nitro blue tetrazolium reduction assay was performed (Collins et al., 1979; J. Exp. Med. 149:969-974). The percentage of differentiated cells was determined by counting a total of 200 cells and recording the number that contained intracellular black-blue formazan deposits. Verification of differentiation to monocytic cells was determined by measuring phagocytic activity (data not shown).

In test [3] the target is T1, full-length recombinant rat vitamin D receptor (Rattus norvegicus, UniProt P13053).
T1 construct: Full-length recombinant rat receptor was expressed in E. coli; histidine tag (C); made in house; host or cells: E. coli BL21 (DE3) Codon Plus RIL
T1 sequence (P13053 1-423): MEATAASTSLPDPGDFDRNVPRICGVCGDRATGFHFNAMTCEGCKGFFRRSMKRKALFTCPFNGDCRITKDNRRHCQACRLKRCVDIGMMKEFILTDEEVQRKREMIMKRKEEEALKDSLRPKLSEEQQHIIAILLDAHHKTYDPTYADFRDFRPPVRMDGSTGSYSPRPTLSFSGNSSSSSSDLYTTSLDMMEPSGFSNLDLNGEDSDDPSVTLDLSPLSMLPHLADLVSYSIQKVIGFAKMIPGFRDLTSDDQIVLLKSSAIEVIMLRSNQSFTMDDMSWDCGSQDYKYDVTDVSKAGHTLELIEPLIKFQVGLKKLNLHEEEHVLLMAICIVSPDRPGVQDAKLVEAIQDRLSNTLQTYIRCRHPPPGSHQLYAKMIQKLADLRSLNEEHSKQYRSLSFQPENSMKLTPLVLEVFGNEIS
In words: Vitamin D receptor binding, competition with [3H]-1,25(OH)2D3. To be noted: full-length recombinant rat VDR; FIG. 1. From the text:
Vitamin D Receptor Binding
Full-length recombinant rat receptor was expressed in E. coli BL21 (DE3) Codon Plus RIL cells and purified to homogeneity using two different column chromatography systems. The first system was a nickel affinity resin that utilizes the C-terminal histidine tag on this protein. The protein that was eluted from this resin was further purified using ion exchange chromatography (S-Sepharose Fast Flow). Aliquots of the purified protein were quick frozen in liquid nitrogen and stored at −80° C. until use. For use in binding assays, the protein was diluted in TEDK50 (50 mM Tris, 1.5 mM EDTA, pH7.4, 5 mM DTT, 150 mM KCl) with 0.1% Chaps detergent. The receptor protein and ligand concentration were optimized such that no more than 20% of the added radiolabeled ligand was bound to the receptor.
The following day, 100 mcl of hydroxylapatite slurry (50%) was added to each tube and mixed at 10-minute intervals for 30 minutes. The hydroxylapaptite was collected by centrifugation and then washed three times with Tris-EDTA buffer (50 mM Tris, 1.5 mM EDTA, pH 7.4) containing 0.5% Titron X-100. After the final wash, the pellets were transferred to scintillation vials containing 4 ml of Biosafe II scintillation cocktail, mixed and placed in a scintillation counter. Total binding was determined from the tubes containing only radiolabeled ligand.

Test [4] in a line: Bone calcium mobilization (serum calcium) in vitamin D-deficient rats. It counts as in vivo, rat. As for the experimental part: as §1, §2

By EC50 is commonly meant the concentration needed to bring the measured effect to its halfway point. As usually defined, the Ki is a dissociation constant, usually derived from enzyme kinetics or from competition with a known ligand. `C=C1[C@H](O)CC(=C/C=C2\CCC[C@]3(C)[C@@H]([C@H](C)/C=C/C(=O)C4(C(=O)CCCCC)CC4)CC[C@@H]23)C[C@H]1O` [UW-05, 2-methylene-(22E)-25-hexanoyl-24-oxo-26,27-cyclo-22-dehydro-19-nor-1α-hydroxyvitamin D3]: the figures for the EC50 (in test [1]; in the test on HL-60 cells (Homo sapiens)) were 0.3 nM and 4 nM, respectively. For the same molecule, the “intestinal calcium transport activity at 87 pmol/day” value in test [2] (87 pmol/day for 4 consecutive days, FIG. 5A) is on record as “did not result in substantial activity”. Besides, the “intestinal calcium transport activity at 260 pmol/day and then 780 pmol/day” value in test [2] (260 pmol/day and 780 pmol/day, 4 consecutive days, FIG. 5A) is “a significant increase in effect was seen”. Also, the “intestinal calcium transport activity compared with 1,25(OH)2D3” value in test [2] (in vivo, dose dependent, FIGS. 5A and 5B) was “approximately equal to 1,25-dihydroxyvitamin D3”. Also, the inhibition constant Ki in test [3] stood at 0.3 nM. In addition, the “bone calcium mobilization at 780 pmol/day” value in test [4] (780 pmol/day, FIG. 4B, second group of animals) was “no substantial effect was seen”. For the same molecule, the “dose giving about the same mobilization of bone calcium as 1,25(OH)2D3 at 260 pmol/day” value in test [4] (4 consecutive days, ip, FIG. 4A, first group of animals) is 780 pmol/day. Also, the “dose giving about the same mobilization of bone calcium as native hormone at 780 pmol/day” value in test [4] (4 consecutive days, ip, FIG. 4B, second group of animals) is 7020 pmol/day. Moreover, the “bone calcium mobilization activity, times less than 1,25(OH)2D3” value in test [4] (FIGS. 4A and 4B) is on record as “about 10 times”.

In the case of `C=C1/C(=C\C=C2/CCC[C@]3(C)[C@@H]([C@H](C)CCCC(C)(C)O)CC[C@@H]23)C[C@@H](O)C[C@@H]1O` [1α,25-dihydroxyvitamin D3, reference compound], the EC50 in test [1] was found to be 0.3 nM; in the test with HL-60 cells it was 2 nM. In test [4] (vitamin D-deficient rats, low calcium diet (0.02%), all dosages, FIGS. 4A and 4B), the “serum calcium levels (bone calcium mobilization)” value is given as “increased serum calcium levels at all dosages”.
